# Assay results from patent US20250380701A1, “HERBICIDAL COMBINATIONS AND A METHOD FOR CONTROLLING UNDESIRED VEGETATION” (UPL Mauritius Limited, priority 2022, published 2025).
# Test system: weedy Glycine max
# Test: Post-emergence herbicidal activity trial, efficacy on weedy Glycine max (Colby evaluation)
# Format: in vivo
# Description: The following products were used for testing the weed control efficacy of present herbicidal combinations.
# Methodology: Trials were carried out to evaluate the efficacy of the combination of L-glufosinate ammonium (glufosinate-P-ammonium) and the additional herbicides on weedy Glycine max.
# The soil used was sandy clay loam-sand: 68.0%; silt: 8.0%; clay: 24.0%.
# All treatments were in 3 replications per treatment with a spray volume of about 150 L/ha.
# The expected efficacy of a combination of L-glufosinate and the other herbicides was calculated using the well-established Colby method. Any difference between the observed and “expected” efficacy could be attributed to synergy between the two compounds.
# In the Colby method, the expected (or predicted) response of a combination of herbicides is calculated by taking the product of the observed response for each individual component of the combination when applied alone, divided by 100, and subtracting this value from the sum of the observed response for each component when applied alone. An unexpected enhancement in efficacy of the combination is then determined by comparing the observed response of the combination to the expected (or predicted) response as calculated from the observed response of each individual component alone. If the observed response of the combination is greater than the expected (or predicted) response, or stated conversely, if the difference between the observed and expected response is greater than zero, then the combination is said to be synergistic or unexpectedly effective (Colby, S. R., Weeds, 1967(15), p. 20-22). The Colby method requires only a single dose of each herbicide applied alone and the mixture of both doses. The formula used to calculate the expected efficacy (EE) which was compared with the observed efficacy (OE) to determine the efficacy of the present disclosure is explained hereinbelow:
# The expected efficacy for a combination of two active ingredients is as follows:
# wherein, • A=Observed efficacy of active ingredient A at the same concentration as used in the mixture. • B=Observed efficacy of the active ingredient B at the same concentration as used in the mixture. • C=Observed efficacy of the active ingredient C at the same concentration as used in the mixture.
# Experiments were conducted to assess the efficacy of the herbicidal combination comprising L-glufosinate ammonium and quizalofop-ethyl to control weedy Glycine max.
# The percentage efficacy was calculated after 3, 28 and 35 days of applications (DAA). The target weed was Glycine max, and the concentration of the herbicide and the results are recorded in Table 2.
# Experiments were conducted to assess the efficacy of the herbicidal combination comprising L-glufosinate ammonium and quizalofop-p-tefuryl to control the weedy Glycine max
# The percentage efficacy was calculated after 3, 28 and 35 days of applications (DAA). The target weed was weedy Glycine max, and the concentration of the herbicide and the results are recorded in Table 3.
smiles,measurement,setting,value
CP(=O)(O)CC[C@H](N)C(=O)O.N [L-glufosinate ammonium],Observed efficacy (%) of L-glufosinate ammonium (150 g a.i./ha),"Example 1 (Table 2), 3 DAA",50%
same,Observed efficacy (%) of L-glufosinate ammonium (150 g a.i./ha),"Example 1 (Table 2), 28 DAA",40%
same,Observed efficacy (%) of L-glufosinate ammonium (150 g a.i./ha),"Example 1 (Table 2), 35 DAA",40%
same,Observed efficacy (%) of L-glufosinate ammonium (150 g a.i./ha),"Example 2 (Table 3), 3 DAA",50%
same,Observed efficacy (%) of L-glufosinate ammonium (150 g a.i./ha),"Example 2 (Table 3), 28 DAA",60%
same,Observed efficacy (%) of L-glufosinate ammonium (150 g a.i./ha),"Example 2 (Table 3), 35 DAA",55%
"CCOC(=O)C(C)Oc1ccc(Oc2cnc3cc(Cl)ccc3n2)cc1 (stereo not drawn) [quizalofop-ethyl, Quizalofop-ethyl]",Observed efficacy (%) of quizalofop-ethyl (25 g a.i./ha),"Example 1 (Table 2), 3 DAA",0%
same,Observed efficacy (%) of quizalofop-ethyl (25 g a.i./ha),"Example 1 (Table 2), 28 DAA",0%
same,Observed efficacy (%) of quizalofop-ethyl (25 g a.i./ha),"Example 1 (Table 2), 35 DAA",0%
"C[C@@H](Oc1ccc(Oc2cnc3cc(Cl)ccc3n2)cc1)C(=O)OCC1CCCO1 (stereo partly drawn) [quizalofop-p-tefuryl, Quizalofop-p-tefuryl]",Observed efficacy (%) of quizalofop-p-tefuryl (25 g a.i./ha),"Example 2 (Table 3), 3 DAA",0%
same,Observed efficacy (%) of quizalofop-p-tefuryl (25 g a.i./ha),"Example 2 (Table 3), 28 DAA",0%
same,Observed efficacy (%) of quizalofop-p-tefuryl (25 g a.i./ha),"Example 2 (Table 3), 35 DAA",0%
